In ChEMBL document CHEMBL1250443, “Microarray-based method for monitoring yeast overexpression strains reveals small-molecule targets in TOR pathway” (Nat Chem Biol, 2006):
pIC50: −log10 of the molar value.

Key:
Saccharomyces cerevisiae [1] = test: Increase of SUV3 gene expression in wild-type Saccharomyces cerevisiae transformed with overexpression plasmids by microarray; format: functional
Saccharomyces cerevisiae [2] = test: Decrease of YJL051W gene expression in wild-type Saccharomyces cerevisiae transformed with overexpression plasmids by microarray; format: functional
Saccharomyces cerevisiae [3] = test: Increase of MAM1 gene expression in wild-type Saccharomyces cerevisiae transformed with overexpression plasmids by microarray; format: functional
Saccharomyces cerevisiae [4] = test: Increase of MDL1 gene expression in wild-type Saccharomyces cerevisiae transformed with overexpression plasmids by microarray; format: functional
Saccharomyces cerevisiae [5] = test: Increase of FMP38 gene expression in wild-type Saccharomyces cerevisiae transformed with overexpression plasmids by microarray; format: functional
Saccharomyces cerevisiae [6] = test: Decrease of HOS1 gene expression in wild-type Saccharomyces cerevisiae transformed with overexpression plasmids by microarray; format: functional
Saccharomyces cerevisiae [7] = test: Increase of HMI1 gene expression in wild-type Saccharomyces cerevisiae transformed with overexpression plasmids by microarray; format: functional
Saccharomyces cerevisiae [8] = test: Increase of GUF1 gene expression in wild-type Saccharomyces cerevisiae transformed with overexpression plasmids by microarray; format: functional
Saccharomyces cerevisiae [9] = test: Decrease of RIM11 gene expression in wild-type Saccharomyces cerevisiae transformed with overexpression plasmids by microarray; format: functional
Saccharomyces cerevisiae [10] = test: Increase of MRPS28 gene expression in wild-type Saccharomyces cerevisiae transformed with overexpression plasmids by microarray; format: functional
[11] = target: T1, Translation factor GUF1, mitochondrial (Saccharomyces cerevisiae S288c, UniProt P46943); test: Inhibition of yeast Guf1
T1 sequence (P46943 whole entry): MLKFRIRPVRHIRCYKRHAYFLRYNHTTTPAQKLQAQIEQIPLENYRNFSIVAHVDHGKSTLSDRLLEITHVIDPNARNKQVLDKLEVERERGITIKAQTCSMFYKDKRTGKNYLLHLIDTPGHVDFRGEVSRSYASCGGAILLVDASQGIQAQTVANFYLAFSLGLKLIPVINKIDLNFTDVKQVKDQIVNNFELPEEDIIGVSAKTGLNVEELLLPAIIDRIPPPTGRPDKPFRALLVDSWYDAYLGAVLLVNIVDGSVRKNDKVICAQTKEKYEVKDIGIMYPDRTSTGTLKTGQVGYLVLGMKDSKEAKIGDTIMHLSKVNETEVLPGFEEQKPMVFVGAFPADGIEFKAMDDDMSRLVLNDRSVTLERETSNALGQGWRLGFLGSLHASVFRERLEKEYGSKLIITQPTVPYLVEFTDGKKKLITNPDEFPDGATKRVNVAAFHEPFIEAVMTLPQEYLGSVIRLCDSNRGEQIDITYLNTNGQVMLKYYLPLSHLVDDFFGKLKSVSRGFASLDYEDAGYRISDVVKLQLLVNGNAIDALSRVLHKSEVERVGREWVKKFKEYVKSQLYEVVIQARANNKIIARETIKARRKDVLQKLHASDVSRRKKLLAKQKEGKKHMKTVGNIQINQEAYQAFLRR

Saccharomyces cerevisiae [12] = test: Decrease of FET4 gene expression in wild-type Saccharomyces cerevisiae transformed with overexpression plasmids by microarray; format: functional
Saccharomyces cerevisiae [13] = test: Decrease of YDR222W gene expression in wild-type Saccharomyces cerevisiae transformed with overexpression plasmids by microarray; format: functional
Saccharomyces cerevisiae [14] = test: Increase of PET111 gene expression in wild-type Saccharomyces cerevisiae transformed with overexpression plasmids by microarray; format: functional
Saccharomyces cerevisiae [15] = test: Decrease of YMD8 gene expression in wild-type Saccharomyces cerevisiae transformed with overexpression plasmids by microarray; format: functional
Saccharomyces cerevisiae [16] = test: Decrease of YKR75C gene expression in wild-type Saccharomyces cerevisiae transformed with overexpression plasmids by microarray; format: functional
Saccharomyces cerevisiae [17] = test: Increase of YDR514C gene expression in wild-type Saccharomyces cerevisiae transformed with overexpression plasmids by microarray; format: functional
Saccharomyces cerevisiae [18] = test: Decrease of SGN1 gene expression in wild-type Saccharomyces cerevisiae transformed with overexpression plasmids by microarray; format: functional
Saccharomyces cerevisiae [19] = test: Increase of YRR1 gene expression in wild-type Saccharomyces cerevisiae transformed with overexpression plasmids by microarray; format: functional

- pIC50 [11]: 3.52
SMILES: O=C1C(Nc2ccccc2)=CC(=O)c2ncccc21
- fold change (FC) (Saccharomyces cerevisiae [1]): 2.4
- fold change (FC) (Saccharomyces cerevisiae [2]): -2.1
- fold change (FC) (Saccharomyces cerevisiae [3]): 2.1
- fold change (FC) (Saccharomyces cerevisiae [4]): 2.2
- fold change (FC) (Saccharomyces cerevisiae [5]): 3.1
- fold change (FC) (Saccharomyces cerevisiae [6]): -2.4
- fold change (FC) (Saccharomyces cerevisiae [7]): 2.9
- fold change (FC) (Saccharomyces cerevisiae [8]): 5
- fold change (FC) (Saccharomyces cerevisiae [9]): -3.3
- fold change (FC) (Saccharomyces cerevisiae [10]): 2.1
- fold change (FC) (Saccharomyces cerevisiae [12]): -4.3
- fold change (FC) (Saccharomyces cerevisiae [13]): -2.4
- fold change (FC) (Saccharomyces cerevisiae [14]): 2.3
- fold change (FC) (Saccharomyces cerevisiae [15]): -2
- fold change (FC) (Saccharomyces cerevisiae [16]): -2.1
- fold change (FC) (Saccharomyces cerevisiae [17]): 2.7
- fold change (FC) (Saccharomyces cerevisiae [18]): -2.1
- fold change (FC) (Saccharomyces cerevisiae [19]): 2.8
